Our source for the IC50 values is patent publication US20240109893A1, “PREPARATION AND APPLICATION METHOD OF HETEROCYCLIC COMPOUNDS AS KRAS INHIBITOR” (SHANGHAI KECHOW PHARMA, INC., priority 2020, published 2024).

The assay concerns H358 cells. Kind of assay: Cell activity experiment: activity test of H358 cells (MTT, 5 days). It is filed as cell-based. To be noted: Homo sapiens, NCI-H358, 120 h, 5 days incubation, absorbance 492 nm. How it is done:
Example: Cell Activity Experiment
1. Cells: H358 purchased from Shanghai EK-Bioscience Biotechnology Co., Ltd.
2. Reagents: RPMI 1640 medium, Tryple, MTT (5 mg/mL), DMSO, and DPBS.
3. Instruments: an incubator at 37° C. and 5% CO2, a UTRAO microplate reader, a biosafety cabinet, a cell counting plate, and an Optec optical microscope.
4. Experimental consumables: 96-well plate Item No.: 3599, and 96-well round-bottomed dispensing plate.
Experimental Steps of Activity Test of H358 Cells:
1. Plating: Cells in the logarithmic growth phase were digested with Tryple and terminated with a fresh medium, and the cells were counted; and the cell concentration was adjusted to 55555 cells/mL with a fresh medium, wherein 90 μL was added to each well, and those on edges were filled with sterile DPBS.
2. The plate was incubated in the incubator at 37° C. and 5% CO2 for 24 h, so that the cells cover the bottom of the well by about 50%.
3. Drug preparation for experimental group: The drug was dissolved in DMSO to prepare a 20 mmol/L stock solution; the stock solution was further diluted with DMSO to 2 mmol/L, which was serially 3-fold diluted to form an […]-concentration gradient, resulting in a 200× serial compound solution; 10 μL of the serial compound solution was taken and added to 190 μLμL of RPMI1640 medium to obtain a 10× serial compound solution; and 10 μL of the 10× compound solution was taken and added to 90 μL 96-well cell culture plate, with three replicates per grade. The concentration gradient of the compound in the 96-well cell culture plate was […], 1.524158 nM, 4.572474 nM, 13.717420 nM, 41.152260 nM, 123.456800 nM, 370.370400 nM, 1111.111000 nM, 3333.333000 nM, and 10000.000000 nM, with 100 μL per well, and the final concentration of DMSO was 0.5%.
The control group contained the same volume of solvent as the experimental group and was diluted with a complete medium, with 100 μL per well.
4. Incubation was carried out for 5 days in an incubator with 5% CO2 at 37° C.
5. After 5 days, 10 μL of an MTT solution (5 mg/mL) was added to each well, and the culture was continued for 4 h.
6. The culture was terminated, and the culture solution was carefully sucked out of the well.
7. 150 μL of dimethyl sulfoxide (DMSO) was added to each of the null wells in the experimental group and the control group; and after shaking at a medium speed for 10 s, the crystal was fully dissolved, and the optical absorbance value thereof was measured at a wavelength of 492 nm.

Each structure is given as a SMILES string.

Molecule `C=CC(=O)N1CCN(c2nc(OC[C@@H]3CCCN3C)nc3c(F)c(-c4cccc5c4CCOC5)ncc23)C[C@@H]1CC#N` [Example 50, 2-((S)-1-acryloyl-4-(8-fluoro-7-(isochroman-5-yl)-2-(((S)-1-methylpyrrolidin-2-yl)methoxy)pyridino[4,3-d]pyrimidin-4-yl)piperazin-2-yl)acetonitrile] displayed an IC50 of 140 nM.

In turn, `C=CC(=O)N1CCN(c2nc(OC[C@@H]3CCCN3C)nc3c(F)c(-c4cccc5ccsc45)ncc23)C[C@@H]1CC#N` [Example 51, 2-((S)-1-acryloyl-4-(7-(benzo[b]thien-7-yl)-8-fluoro-2-(((S)-1-methylpyrrolidin-2-yl)methoxy)pyridino[4,3-d]pyrimidin-4-yl)piperazin-2-yl)acetonitrile] returned a 50% inhibitory concentration (IC50) of 148 nM.

With `C=CC(=O)N1CCN(c2nc(OC[C@@H]3CCCN3C)nc3c(F)c(-c4cccc5c4C4CC4C5)ncc23)C[C@@H]1CC#N` (stereo partly drawn) [Example 52, 2-((2S)-1-acryloyl-4-(8-fluoro-2-(((S)-1-methylpyrrolidin-2-yl)methoxy)-7-(1,1a,6,6a-tetrahydrocyclopropa[a]inden-2-yl)pyridino[4,3-d]pyrimidin-4-yl)piperazin-2-yl)acetonitrile], 0.22 nM corresponded to half-maximal inhibition (IC50).

Take `C=C(F)C(=O)N1CCN(c2nc(OC[C@@H]3CCCN3C)nc3c(F)c(-c4cccc5c4SCCC5)ncc23)C[C@@H]1CC#N` [Example 53, 2-((S)-4-(8-fluoro-2-(((S)-1-methylpyrrolidin-2-yl)methoxy)-7-(thiochroman-8-yl)pyridino[4,3-d]pyrimidin-4-yl)-1-(2-fluoroacryloyl)piperazin-2-yl)acetonitrile]: the IC50 turned out to be 180 nM.

`C=CC(=O)N1CCN(c2nc(OC[C@@H]3CCCN3C)nc3c(F)c(-c4ccc(F)c5c4SCCC5)ncc23)C[C@@H]1CC#N` [Example 54, 2-((S)-1-acryloyl-4-(8-fluoro-7-(5-fluorothiochroman-8-yl)-2-(((S)-1-methylpyrrolidin-2-yl)methoxy)pyridino[4,3-d]pyrimidin-4-yl)piperazin-2-yl)acetonitrile] gave an IC50 of 70 nM.

`C=C(F)C(=O)N1CCN(c2nc(OC[C@@H]3CCCN3C)nc3c(F)c(-c4cccc5c4C4CC4C5)ncc23)C[C@@H]1CC#N` (stereo partly drawn) [Example 55, 2-((2S)-4-(8-fluoro-2-(((S)-1-methylpyrrolidin-2-yl)methoxy)-7-(1,1a,6,6a-tetrahydrocyclopropa[a]inden-2-yl)pyridino[4,3-d]pyrimidin-4-yl)-1-(2-fluoroacryloyl)piperazin-2-yl)acetonitrile] returned an IC50 of 160 nM.

`C=CC(=O)N1CCN(c2nc(OC[C@@H]3CCCN3C)nc3c(F)c(-c4cccc5c4[C@H]4C[C@H]4C5)ncc23)C[C@@H]1CC#N` [Example 56, 2-((S)-1-acryloyl-4-(8-fluoro-2-(((S)-1-methylpyrrolidin-2-yl)methoxy)-7-((1aS,6aS)-1,1a,6,6a-tetrahydrocyclopropa[a]inden-2-yl)pyridino[4,3-d]pyrimidin-4-yl)piperazin-2-yl)acetonitrile] displayed an IC50 of 2.2 nM.

Take `C=C(F)C(=O)N1CCN(c2nc(OC[C@@H]3CCCN3C)nc3c(F)c(-c4cccc5c4[C@H]4C[C@H]4C5)ncc23)C[C@@H]1CC#N` [Example 57, 2-((S)-4-(8-fluoro-2-(((S)-1-methylpyrrolidin-2-yl)methoxy)-7-((1aS,6aS)-1,1a,6,6a-tetrahydrocyclopropa[a]inden-2-yl)pyridino[4,3-d]pyrimidin-4-yl)-1-(2-fluoroacryloyl)piperazin-2-yl)acetonitrile]: it took 150 nM to reach half-maximal inhibition (IC50).

`C=CC(=O)N1CCN(c2nc(OC[C@@H]3CCCN3C)nc3c(F)c(-c4cccc5c4[C@@H]4C[C@@H]4C5)ncc23)C[C@@H]1CC#N` [Example 58, 2-((S)-1-acryloyl-4-(8-fluoro-2-(((S)-1-methylpyrrolidin-2-yl)methoxy)-7-((1aR,6aR)-1,1a,6,6a-tetrahydrocyclopropa[a]inden-2-yl)pyridino[4,3-d]pyrimidin-4-yl)piperazin-2-yl)acetonitrile] had a half-inhibitory concentration (IC50) of 0.81 nM.

`C=C(F)C(=O)N1CCN(c2nc(OC[C@@H]3CCCN3C)nc3c(F)c(-c4cccc5c4[C@@H]4C[C@@H]4C5)ncc23)C[C@@H]1CC#N` [Example 59, 2-((S)-4-(8-fluoro-2-(((S)-1-methylpyrrolidin-2-yl)methoxy)-7-((1aR,6aR)-1,1a,6,6a-tetrahydrocyclopropa[a]inden-2-yl)pyridino[4,3-d]pyrimidin-4-yl)-1-(2-fluoroacryloyl)piperazin-2-yl)acetonitrile] showed an IC50 of 140 nM.

In turn, `C=CC(=O)N1CCN(c2nc(OC[C@@H]3CCCN3C)nc3c(F)c(-c4cccc5c4CC(C)C5)ncc23)C[C@@H]1CC#N` (stereo partly drawn) [Example 60, 2-((2S)-1-acryloyl-4-(8-fluoro-7-(2-methyl-2,3-dihydro-1H-inden-4-yl)-2-(((S)-1-methylpyrrolidin-2-yl)methoxy)pyridino[4,3-d]pyrimidin-4-yl)piperazin-2-yl)acetonitrile] registered an IC50 of 70 nM.

`C=CC(=O)N1CCN(c2nc(OCC34CCCN3CCC4)nc3c(F)c(-c4cccc5c4C4CC4C5)ncc23)C[C@@H]1CC#N` (stereo partly drawn) [Example 61] came in with an IC50 of 0.71 nM.

In the case of `C=C(F)C(=O)N1CCN(c2nc(OCC34CCCN3CCC4)nc3c(F)c(-c4cccc5c4C4CC4C5)ncc23)C[C@@H]1CC#N` (stereo partly drawn) [Example 62, 2-((2S)-4-(8-fluoro-2-((tetrahydro-1H-pyrrolizin-7a(5H)-yl)methoxy)-7-(1,1a,6,6a-tetrahydrocyclopropa[a]inden-2-yl)pyridino[4,3-d]pyrimidin-4-yl)-1-(2-fluoroacryloyl)piperazin-2-yl)acetonitrile], the 50% inhibitory concentration (IC50) was 8 nM. This IC50 is about 11-fold higher than that of the molecule before.

`C=CC(=O)N1CCN(c2nc(OCC34CCCN3CCC4)nc3c(F)c(-c4cccc5c4[C@H]4C[C@H]4C5)ncc23)C[C@@H]1CC#N` [Example 63, 2-((S)-1-acryloyl-4-(8-fluoro-2-((tetrahydro-1H-pyrrolizin-7a(5H)-yl)methoxy)-7-((1aS,6aS)-1,1a,6,6a-tetrahydrocyclopropa[a]inden-2-yl)pyridino[4,3-d]pyrimidin-4-yl)piperazin-2-yl)acetonitrile] returned an IC50 of 2.2 nM. Compared with the last molecule, the IC50 is about 3.6-fold lower.

`C=C(F)C(=O)N1CCN(c2nc(OCC34CCCN3CCC4)nc3c(F)c(-c4cccc5c4[C@H]4C[C@H]4C5)ncc23)C[C@@H]1CC#N` [Example 64, 2-((S)-4-(8-fluoro-2-((tetrahydro-1H-pyrrolizin-7a(5H)-yl)methoxy)-7-((1aS,6aS)-1,1a,6,6a-tetrahydrocyclopropa[a]inden-2-yl)pyridino[4,3-d]pyrimidin-4-yl)-1-(2-fluoroacryloyl)piperazin-2-yl)acetonitrile] had an IC50 of 10 nM.

Consider `C=CC(=O)N1CCN(c2nc(OCC34CCCN3CCC4)nc3c(F)c(-c4cccc5c4[C@@H]4C[C@@H]4C5)ncc23)C[C@@H]1CC#N` [Example 65], for which 3.2 nM corresponded to half-maximal inhibition (IC50).

`C=C(F)C(=O)N1CCN(c2nc(OCC34CCCN3CCC4)nc3c(F)c(-c4cccc5c4[C@@H]4C[C@@H]4C5)ncc23)C[C@@H]1CC#N` [Example 66, 2-((S)-4-(8-fluoro-2-((tetrahydro-1H-pyrrolizin-7a(5H)-yl)methoxy)-7-((1aR,6aR)-1,1a,6,6a-tetrahydrocyclopropa[a]inden-2-yl)pyridino[4,3-d]pyrimidin-4-yl)-1-(2-fluoroacryloyl)piperazin-2-yl)acetonitrile] returned a 50% inhibitory concentration (IC50) of 9 nM.

On to `C=CC(=O)N1CCN(c2nc(OC[C@@]34CCCN3C[C@H](F)C4)nc3c(F)c(-c4cccc5c4C4CC4C5)ncc23)C[C@@H]1CC#N` (stereo partly drawn) [Example 67], for which the midpoint of inhibition, the IC50, lay at 0.07 nM. This IC50 is about 130-fold lower than that of the molecule before.
